“And” between values parts separate entries of the source, which are not always exact repeats. Identical values can stand only once. Like-named read-outs stand apart in the source and are kept apart here.
Key:
[1] = set-up: method as in PMID 32820094; settings: cited from earlier work
MC38 tumours = settings: for Tumor Size: individual mice, * = excluded once a death was recorded in the group
serum cytokines = assay: Multiplexed cytokine profiling of sera, MC38 model; type: in vivo, C57BL/6 mice; settings: sera obtained on Day 9, PBS = 1
Experimental: This study used Luminex xMAP technology for multiplexed quantification of 44 mouse cytokines, chemokines and growth factors. The multiplexing analysis was performed using the Luminex 200 system (Luminex) by Eve Technologies Corp. […] markers were simultaneously measured in the samples using Eve Technologies’ Mouse Cytokine 44-Plex Discovery Assay, which consists of two separate kits, one 32-plex and one 12-plex (MilliporeSigma), following the manufacturer’s protocol. […] The sensitivities of individual analytes are available in the MilliporeSigma MILLIPLEX MAP protocol. […] MC-38 cells were inoculated into the right flank of C57BL/6 mice and treated once tumors reached about 90 mm^3. […] Source data

[2] = LC–MS/MS analysis of in situ SC2S formation (tissue distribution); type: in vivo, BALB/c mice; settings: for concentration at 4 h / concentration at 2 h / concentration at 1 h: BALB/c, mouse
Experimental: The blood, tumour, lung, kidney, liver and spleen were collected for each mouse. Three mice treated with vehicle were included as control samples. Whole blood samples were centrifuged at 2,000g, 4 °C for 10 min. Supernatant plasma was aspirated into an Eppendorf tube and frozen at −80 °C. Tumour and organ tissues were snap-frozen in liquid nitrogen and stored at −80 °C until further analysis. The plasma samples (10-µl aliquots) were prepared by protein precipitation extraction. The organic layer was evaporated to dryness and reconstituted in a solution equivalent to the initial chromatographic starting conditions. The tissue samples were analysed by homogenization to give a 200 […] concentration. The homogenised tissue samples (10-µl aliquots) were then taken through the same preparation procedure as the plasma samples. All samples were analysed using the PKB Core Facility’s 6500 LC–MS/MS system, in negative ion mode. The chromatography was carried out using a gradient method on a Kinetex EVO C18 column (50 × 2.1 mm). Analysis was conducted in four batches, consisting of calibration standards, quality control samples, blank control samples, internal standard-only samples and study samples. Calibration curves were constructed using linear regression with a 1/x^2 weighting. A calibration range of 1–500 ng ml^−1 (5–2,500 ng g^−1 in tissue) was used. Precision and accuracy were well within the PK/B core facility’s acceptance criteria of ±20%. The LC–MS/MS method was developed and qualified ahead of the sample analysis. The performance of the method met normal Core Facility acceptance criteria for analysis.

COc1cc2cc(C(=O)CCC(=O)O)sc2cc1OC [MSA2]
tumour and plasma concentration after intratumoural injection [1]: its concentration in the tumour decreased rapidly past the 2-h timepoint, and substantial leakage into the plasma occurred | Tumor Size (MC38 tumours; day 39): 279.4986* mm^3 | Tumor Size (MC38 tumours; day 53): 0* mm^3 | Survival: Days (MC38 tumours; mouse, in vivo): 60 days and 49 days and 35 days | CCL3 (serum cytokines): 1.442 | CCL4 (serum cytokines): 0.7068 | CCL12 (serum cytokines): 5.215 | CXCL2 (serum cytokines): 1.851 | EPO (serum cytokines): 1.36 | G-CSF (serum cytokines): 2.042 | IFNγ (serum cytokines): 0.4672 | IL-1β (serum cytokines): 1.9772 | IL-3 (serum cytokines): 0.512 | IL-6 (serum cytokines): 4.186 | IL-12p40 (serum cytokines): 0.2035 | IL-12p70 (serum cytokines): 1.442 | IL-15 (serum cytokines): 0.4244 | IL-16 (serum cytokines): 1.895 | IL-17 (serum cytokines): 1.777 | M-CSF (serum cytokines): 0.6463 | TARC (serum cytokines): 1.519

COc1cc2sc(C(=O)CCC(=O)O)cc2cc1SCCSc1cc2cc(C(=O)CCC(=O)O)sc2cc1OC [SC2S]
Blood Calculated Concentration ([2]; 1h, individual samples): BLQ | Kidney Calculated Concentration ([2]; 1h, individual samples): BLQ | Lung Calculated Concentration ([2]; 1h, individual samples): BLQ | Tumour Calculated Concentration ([2]; 1h, individual samples): 64.6 ng/mL and 323 ng/g and 11.6 ng/mL and 58.1 ng/g and 12.1 ng/mL and 60.6 ng/g | Blood Calculated Concentration ([2]; 2h, individual samples): BLQ | Liver Calculated Concentration ([2]; 2h, individual samples): BLQ | Spleen Calculated Concentration ([2]; 2h, individual samples): BLQ | Tumour Calculated Concentration ([2]; 2h, individual samples): 17.8 ng/mL and 89.2 ng/g and 62.2 ng/mL and 311 ng/g and 4.45 ng/mL and 22.2 ng/g | Kidney Calculated Concentration ([2]; 4h, individual samples): BLQ | Spleen Calculated Concentration ([2]; 4h, individual samples): BLQ | Tumour Calculated Concentration ([2]; 4h, individual samples): 12.1 ng/mL and 60.4 ng/g and 19.6 ng/mL and 98.2 ng/g and 4.66 ng/mL and 23.3 ng/g | Kidney Calculated Concentration ([2]; 8h, individual samples): BLQ | Liver Calculated Concentration ([2]; 8h, individual samples): BLQ | Spleen Calculated Concentration ([2]; 8h, individual samples): BLQ | Tumour Calculated Concentration ([2]; 8h, individual samples): BLQ | Kidney Calculated Concentration ([2]; 24h, individual samples): BLQ | Spleen Calculated Concentration ([2]; 24h, individual samples): BLQ | concentration at 4 h ([2]; liver, 4h, read-out: Liver Mean concentration): 9.3 ng/g | concentration at 4 h ([2]; liver, other: β-GlcA-N1 intraperitoneal (IP) + E4 intratumoral (IT), 4h, individual samples, read-out: Liver Calculated Concentration): 1.86 ng/mL and 9.3 ng/g | concentration at 2 h ([2]; plasma, 2h, individual samples, read-out: Blood Calculated Concentration): 3.03 ng/mL | concentration at 2 h ([2]; plasma, 2h, read-out: Blood Mean concentration): 3.03 ng/mL | concentration at 1 h ([2]; plasma, other: β-GlcA-N1 intraperitoneal (IP) + E4 intratumoral (IT), 1h, individual samples, read-out: Blood Calculated Concentration): 1.29 ng/mL | concentration at 1 h ([2]; plasma, other: β-GlcA-N1 intraperitoneal (IP) + E4 intratumoral (IT), 1h, read-out: Blood Mean concentration): 1.29 ng/mL | concentration at 2 h ([2]; tumour, 2h, read-out: Tumour Mean concentration): 141 ng/g | concentration at 4 h ([2]; tumour, 4h, read-out: Tumour Mean concentration): 60.7 ng/g | concentration at 1 h ([2]; tumour, other: β-GlcA-N1 intraperitoneal (IP) + E4 intratumoral (IT), 1h, read-out: Tumour Mean concentration): 147 ng/g
